Reference: DBAASP
≈ marks a conversion by molar mass, not a printed value. Where “and” joins values, the source holds several entries; their conditions need not be identical. Equal entries are not always repeated.

What was measured:
Test in all cases: ≥ marks a high value that may be exact or a test limit, other limits are often not marked, values filed in µg/mL are converted to µM
[1] = test system: Escherichia coli 55B5
[2] = test system: Escherichia coli UB1005
[3] = test system: Pseudomonas aeruginosa
[4] = test system: Salmonella typhimurium
[5] = test system: Staphylococcus aureus
[6] = test system: Bacillus licheniformis X39
[7] = test system: Enterococcus faecalis 981
[8] = test system: Escherichia coli ATCC 25922
[9] = test system: Psychrobacter faecalis X29
[10] = test system: Rhodococcus rhodochrous X15
[11] = test system: Serratia rubidaea X01
[12] = test system: Staphylococcus aureus ATCC 25923
[13] = test system: Staphylococcus carnosus KHS
[14] = test system: Acinetobacter baumannii Ab1408
[15] = test system: Acinetobacter baumannii Ab5753
[16] = test system: Acinetobacter baumannii Ab5755
[17] = test system: Acinetobacter calcoaceticus
[18] = test system: Aspergillus nidulans
[19] = test system: Aspergillus terreus GIM 3.34
[20] = test system: Bacillus cereus
[21] = test system: Bacillus pumilus
[22] = test system: Bacillus subtilis
[23] = test system: Candida albicans ATCC 2002
[24] = test system: Chaetomium globosum
[25] = test system: Enterococcus faecium
[26] = test system: Escherichia coli Ec513
[27] = test system: Escherichia coli K-12
[28] = test system: Escherichia coli K88
[29] = test system: Escherichia coli O78
[30] = test system: Escherichia coli
[31] = test system: Pseudomonas aeruginosa ATCC 27853
[32] = test system: Pseudomonas aeruginosa Pa1409
[33] = test system: Pseudomonas aeruginosa Pa4216
[34] = test system: Pseudomonas luteola
[35] = test system: Saccharibacillus kuerlensis
[36] = test system: Salmonella enterica subsp. enterica serovar Choleraesuis CMCC 50020
[37] = test system: Salmonella enterica subsp. enterica serovar Enteritidis CMCC 50041
[38] = test system: Salmonella enterica subsp. enterica serovar Typhi
[39] = test system: Salmonella typhimurium CMCC 50013
[40] = test system: Serratia marcescens MA
[41] = test system: Serratia marcescens SA
[42] = test system: Sphingobacterium siyangense
[43] = test system: Staphylococcus aureus 08031002
[44] = test system: Staphylococcus aureus 08031013
[45] = test system: Staphylococcus aureus 08032706
[46] = test system: Staphylococcus aureus 08032712
[47] = test system: Staphylococcus aureus 08032810
[48] = test system: Staphylococcus aureus 08A865
[49] = test system: Staphylococcus aureus 08A875
[50] = test system: Staphylococcus aureus ATCC 2592
[51] = test system: Staphylococcus aureus Sa1390
[52] = test system: Staphylococcus epidermidis ATCC 12228
[53] = test system: Staphylococcus aureus 930918-3
[54] = test system: Staphylococcus aureus ATCC 33591

Structure (SMILES): CC[C@H](C)[C@H](NC(=O)[C@H](C)N)C(=O)N[C@@H](Cc1cnc[nH]1)C(=O)N[C@@H](CC(N)=O)C(=O)N[C@@H](CC(C)C)C(=O)N[C@@H](C)C(=O)N[C@@H](Cc1cnc[nH]1)C(=O)N[C@@H](CCCCN)C(=O)N[C@@H](CC(C)C)C(=O)N[C@@H](CC(C)C)C(=O)N[C@@H](CCCCN)C(=O)N[C@@H](CCCCN)C(=O)N[C@@H](CC(C)C)C(=O)N[C@H](C(=O)N[C@@H](CCCN=C(N)N)C(=O)N[C@@H](C)C(=O)N[C@H](C(=O)N[C@@H](CCCCN)C(=O)N[C@@H](CCCCN)C(=O)N[C@@H](CC(C)C)C(=O)N[C@@H](C)C(=O)N[C@@H](CC(N)=O)C(=O)O)C(C)C)[C@@H](C)O [AIHNLAHKLLKKLTRAVKKLAN]
- MIC [1]: 1.8 µM (≈ 4.47 µg/mL)
- MIC [2]: 2.1 µM (≈ 5.21 µg/mL)
- MIC [3]: 3 µM (≈ 7.44 µg/mL)
- MIC [4]: 4.8 µM (≈ 11.9 µg/mL)
- MIC [5]: 55 µM (≈ 136 µg/mL)

Structure (SMILES): CC[C@H](C)[C@H](NC(=O)[C@H](CC(C)C)NC(=O)[C@@H](NC(=O)[C@@H]1CCCN1C(=O)[C@@H](NC(=O)[C@@H](NC(=O)[C@H](CC(N)=O)NC(=O)[C@H](CO)NC(=O)[C@H](C)NC(=O)[C@@H](NC(=O)[C@H](CC(N)=O)NC(=O)[C@H](CC(C)C)NC(=O)[C@H](CC(C)C)NC(=O)[C@@H](NC(=O)[C@H](CO)NC(=O)[C@H](CC(C)C)NC(=O)[C@@H](N)Cc1ccccc1)[C@@H](C)O)C(C)C)C(C)C)C(C)C)[C@@H](C)O)C(=O)N[C@H]1CSSC[C@@H](C(=O)O)NC(=O)[C@H](CCCCN)NC(=O)[C@H](CCCCN)NC(=O)[C@H]([C@@H](C)O)NC(=O)[C@H]([C@@H](C)CC)NC(=O)[C@H](CCCCN)NC1=O [FLSTLLNVASNVVPTLICKITKKC]
- MIC [6]: 9 µM (≈ 23.4 µg/mL)
- MIC [7]: ≥ 75 µM
- MIC [8]: 150 µM (≈ 391 µg/mL)
- MIC [9]: 4.5 µM (≈ 11.7 µg/mL)
- MIC [10]: 2.3 µM (≈ 5.99 µg/mL)
- MIC [11]: 9 µM (≈ 23.4 µg/mL)
- MIC [12]: 19 µM (≈ 49.5 µg/mL)
- MIC [13]: 19 µM (≈ 49.5 µg/mL)

Structure (SMILES): CC[C@H](C)[C@H](NC(=O)[C@@H](NC(=O)[C@H](CCCN=C(N)N)NC(=O)[C@@H]1CCCN1C(=O)[C@H](CCCCN)NC(=O)[C@H](CCCCN)NC(=O)[C@H](Cc1ccccc1)NC(=O)[C@H](Cc1ccccc1)NC(=O)[C@H](CCC(=O)O)NC(=O)[C@H](CCCCN)NC(=O)[C@H](C)NC(=O)[C@H](CCCN=C(N)N)NC(=O)[C@H](CCCCN)NC(=O)[C@H](CCCCN)NC(=O)[C@@H](NC(=O)[C@H](CO)NC(=O)[C@H](CCCCN)NC(=O)[C@H](CCCCN)NC(=O)[C@H](CC(C)C)NC(=O)[C@H](CCCCN)NC(=O)[C@H](CCCN=C(N)N)NC(=O)[C@H](Cc1ccccc1)NC(=O)[C@H](Cc1ccccc1)NC(=O)[C@@H](N)CCCCN)C(C)C)C(C)C)C(=O)NCC(=O)N[C@H](C(=O)N[C@@H](CO)C(=O)N[C@H](C(=O)N1CCC[C@H]1C(=O)N[C@@H](Cc1ccccc1)C(=O)O)[C@@H](C)CC)C(C)C [KFFRKLKKSVKKRAKEFFKKPRVIGVSIPF]
- MIC [14]: 4.4 µM (≈ 16 µg/mL)
- MIC [15]: 4.4 µM (≈ 16 µg/mL)
- MIC [16]: 1.1 µM (≈ 4 µg/mL)
- MIC [17]: 0.632 µM (≈ 2.3 µg/mL)
- MIC [18]: 5.14 µM (≈ 18.7 µg/mL)
- MIC [19]: 5.14 µM (≈ 18.7 µg/mL)
- MIC [20]: 0.33 µM (≈ 1.2 µg/mL)
- MIC [21]: 2.58 µM (≈ 9.4 µg/mL)
- MIC [22]: 2.58 µM (≈ 9.4 µg/mL)
- MIC [23]: 1.29 µM and 0.66 µM
- MIC [24]: 10.3 µM (≈ 37.5 µg/mL)
- MIC [25]: ≥ 41.2 µM
- MIC [8]: 0.632 µM (≈ 2.3 µg/mL)
- MIC [26]: 2.2 µM (≈ 8 µg/mL)
- MIC [27]: 0.275 µM (≈ 1 µg/mL)
- MIC [28]: 1.1 µM (≈ 4 µg/mL)
- MIC [29]: 4.4 µM (≈ 16 µg/mL)
- MIC [30]: 0.323 µM (≈ 1.17 µg/mL)
- MIC [31]: 0.33 µM and > 0.165 µM
- MIC [32]: 2.2 µM (≈ 8 µg/mL)
- MIC [33]: 1.1 µM (≈ 4 µg/mL)
- MIC [3]: 3.64 µM (≈ 13.3 µg/mL)
- MIC [34]: 0.33 µM (≈ 1.2 µg/mL)
- MIC [35]: 1.29 µM (≈ 4.7 µg/mL)
- MIC [36]: 0.55 µM (≈ 2 µg/mL)
- MIC [37]: 1.1 µM (≈ 4 µg/mL)
- MIC [38]: 0.33 µM (≈ 1.2 µg/mL)
- MIC [39]: 1.1 µM (≈ 4 µg/mL)
- MIC [40]: ≥ 110 µM
- MIC [41]: ≥ 110 µM
- MIC [42]: 2.58 µM (≈ 9.4 µg/mL)
- MIC [43]: 27.5 µM (≈ 100 µg/mL)
- MIC [44]: 27.5 µM (≈ 100 µg/mL)
- MIC [45]: 27.5 µM (≈ 100 µg/mL)
- MIC [46]: 27.5 µM (≈ 100 µg/mL)
- MIC [47]: 27.5 µM (≈ 100 µg/mL)
- MIC [48]: ≥ 110 µM
- MIC [49]: 20.6 µM (≈ 75 µg/mL)
- MIC [12]: 1.1 µM (≈ 4 µg/mL)
- MIC [50]: 1.29 µM and 0.66 µM
- MIC [51]: ≥ 35.2 µM
- MIC [52]: 2.2 µM (≈ 8 µg/mL)

Structure (SMILES): CC[C@H](C)[C@H](NC(=O)[C@H](CCCCN)NC(=O)[C@H](CCCCN)NC(=O)[C@H](CC(C)C)NC(=O)[C@H](CCCCN)NC(=O)[C@H](CCC(=O)O)NC(=O)[C@H](CCCCN)NC(=O)[C@@H](NC(=O)[C@H](CCCCN)NC(=O)[C@H](CC(N)=O)NC(=O)[C@H](CCCN=C(N)N)NC(=O)[C@H](Cc1ccccc1)NC(=O)[C@H](CCCCN)NC(=O)[C@@H](N)CCCN=C(N)N)[C@@H](C)CC)C(=O)NCC(=O)O [RKFRNKIKEKLKKIG]
- MIC [53]: 0.95 µM and 1.17 µM
- MIC [54]: ≥ 130 µM
